Experimental data from patent US8952024B2, “Herbicidal pyrimidone derivatives” (E I du Pont de Nemours and Company, priority 2009, dated 2015).

Columns and labels:
Type in all cases: in vivo
[1] = tested on: rice (Oryza sativa); experiment: Test B flooded paddy test; details: for Plant response rating, Flood, Rice: 250 g ai/ha, flooded paddy test, visual rating on 0 to 100 scale (0 no effect, 100 complete control) after 13 to 15 days; for Plant response rating, Rice: Flood (flooded paddy test), 13 to 15 days; for Rice plant response rating: Flood, 31 g ai/ha, scale 0 to 100 (0 no effect, 100 complete control)
How it was run: (§1)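 Plants were grown to the 2-leaf stage, then pots were flooded to 3 cm above the soil and compounds were applied directly into the paddy water. That depth was held throughout. After 13 to 15 days in a greenhouse, injury was visually rated against controls on a 0–100 scale.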

[2] = tested on: umbrella sedge (Cyperus difformis); experiment: Test B flooded paddy test; details: for Plant response rating, Flood, Sedge, Umbrella: 250 g ai/ha, flooded paddy test, visual rating on 0 to 100 scale (0 no effect, 100 complete control) after 13 to 15 days; for Plant response rating, Sedge, Umbrella: Flood (flooded paddy test), 13 to 15 days; for Sedge, Umbrella plant response rating: Flood, 31 g ai/ha, scale 0 to 100 (0 no effect, 100 complete control)
How it was run: as §1

[3] = tested on: barnyardgrass (Echinochloa crus-galli); experiment: Test B flooded paddy test; details: for Plant response rating, Flood, Barnyardgrass: 250 g ai/ha, flooded paddy test, visual rating on 0 to 100 scale (0 no effect, 100 complete control) after 13 to 15 days; for Plant response rating, Barnyardgrass: Flood (flooded paddy test), 13 to 15 days; for Barnyardgrass plant response rating: Flood, 31 g ai/ha, scale 0 to 100 (0 no effect, 100 complete control)
How it was run: as §1

[4] = tested on: ducksalad (Heteranthera limosa); experiment: Test B flooded paddy test; details: for Plant response rating, Flood, Ducksalad: 250 g ai/ha, flooded paddy test, visual rating on 0 to 100 scale (0 no effect, 100 complete control) after 13 to 15 days; for Plant response rating, Ducksalad: Flood (flooded paddy test), 13 to 15 days; for Ducksalad plant response rating: Flood, 31 g ai/ha, scale 0 to 100 (0 no effect, 100 complete control)
How it was run: as §1

[5] = tested on: large crabgrass (Digitaria sanguinalis); experiment: Test A pre-/postemergence plant response; details: for Crabgrass, Large plant response rating: visual injury, 0 to 100 scale (0 no effect, 100 complete control), approx. ten days
How it was run: (§2)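 Pre: directed soil spray on seeded loam/sand blend. Post: same formulation (non-phytotoxic solvent + surfactant) on 2–10 cm plants, 1–2 leaf stage. Greenhouse ~10 d; visual injury score 0–100 vs untreated.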

[6] = tested on: wheat (Triticum aestivum); experiment: Test A pre-/postemergence plant response; details: for Wheat plant response rating: visual injury, 0 to 100 scale (0 no effect, 100 complete control), approx. ten days
How it was run: as §2

[7] = tested on: pigweed (Amaranthus retroflexus); experiment: Test A pre-/postemergence plant response; details: for Pigweed plant response rating: visual injury, 0 to 100 scale (0 no effect, 100 complete control), approx. ten days
How it was run: as §2

[8] = tested on: corn (Zea mays); experiment: Test A pre-/postemergence plant response; details: for Corn plant response rating: visual injury, 0 to 100 scale (0 no effect, 100 complete control), approx. ten days
How it was run: as §2

[9] = tested on: barnyardgrass (Echinochloa crus-galli); experiment: Test A pre-/postemergence plant response; details: for Barnyardgrass plant response rating: visual injury, 0 to 100 scale (0 no effect, 100 complete control), approx. ten days
How it was run: as §2

[10] = tested on: morningglory (Ipomoea spp.); experiment: Test A pre-/postemergence plant response; details: for Morningglory plant response rating: visual injury, 0 to 100 scale (0 no effect, 100 complete control), approx. ten days
How it was run: as §2

[11] = tested on: giant foxtail (Setaria faberii); experiment: Test A pre-/postemergence plant response; details: for Foxtail, Giant plant response rating: visual injury, 0 to 100 scale (0 no effect, 100 complete control), approx. ten days
How it was run: as §2

[12] = tested on: velvetleaf (Abutilon theophrasti); experiment: Test A pre-/postemergence plant response; details: for Velvetleaf plant response rating: visual injury, 0 to 100 scale (0 no effect, 100 complete control), approx. ten days
How it was run: as §2

[13] = 62 g ai/ha, scale of 0 to 100 where 0 is no effect and 100 is complete control
[14] = 125 g ai/ha, scale 0 to 100, 0 is no effect, 100 is complete control
[15] = Postemergence, 125 g ai/ha, 0 to 100 scale where 0 is no effect and 100 is complete control
[16] = Preemergence, 125 g ai/ha, 0 to 100 scale, 0 = no effect, 100 = complete control
[17] = Preemergence, 500 g ai/ha, 0 to 100 scale, 0 = no effect, 100 = complete control

Cc1ccccc1-n1c(-c2cccc(Br)c2)ncc(C(=O)C2=C(O)CCCC2=O)c1=O [Compound 209]
50: Plant response rating, Sedge, Umbrella [2, 13] | Plant response rating, Ducksalad [4, 13] | Plant response rating, Crabgrass, Large [5, 15] | Plant response rating, Barnyardgrass [9, 17]
70: Plant response rating, Sedge, Umbrella [2, 14] | Plant response rating, Crabgrass, Large [5, 17] | Plant response rating, Pigweed [7, 17]
85: Plant response rating, Flood, Ducksalad [4] | Plant response rating, Ducksalad [4, 14]
0: Plant response rating, Rice [1, 13] | Rice plant response rating [1] | Sedge, Umbrella plant response rating [2] | Plant response rating, Barnyardgrass [3, 13] | Plant response rating, Barnyardgrass [3, 14] | Barnyardgrass plant response rating [3] | Ducksalad plant response rating [4] | Plant response rating, Wheat [6, 15] | Wheat plant response rating ([6]; Postemergence, 500 g ai/ha) | Plant response rating, Wheat [6, 16] | Plant response rating, Wheat [6, 17] | Plant response rating, Pigweed [7, 16] | Plant response rating, Corn [8, 15] | Plant response rating, Corn [8, 16] | Plant response rating, Barnyardgrass [9, 16] | Plant response rating, Morningglory [10, 16]
60: Plant response rating, Pigweed [7, 15] | Plant response rating, Foxtail, Giant [11, 15] | Plant response rating, Foxtail, Giant [11, 17] | Plant response rating, Velvetleaf [12, 16]
100: Crabgrass, Large plant response rating ([5]; Postemergence, 500 g ai/ha) | Pigweed plant response rating ([7]; Postemergence, 500 g ai/ha) | Barnyardgrass plant response rating ([9]; Postemergence, 500 g ai/ha) | Morningglory plant response rating ([10]; Postemergence, 500 g ai/ha) | Foxtail, Giant plant response rating ([11]; Postemergence, 500 g ai/ha) | Plant response rating, Velvetleaf [12, 15] | Velvetleaf plant response rating ([12]; Postemergence, 500 g ai/ha) | Plant response rating, Velvetleaf [12, 17]
30: Plant response rating, Morningglory [10, 15] | Plant response rating, Morningglory [10, 17]
20: Plant response rating, Flood, Rice [1] | Plant response rating, Flood, Barnyardgrass [3] | Plant response rating, Crabgrass, Large [5, 16] | Plant response rating, Corn [8, 17]
80: Plant response rating, Flood, Sedge, Umbrella [2] | Plant response rating, Barnyardgrass [9, 15]
10: Plant response rating, Rice [1, 14] | Plant response rating, Foxtail, Giant [11, 16]
40: Corn plant response rating ([8]; Postemergence, 500 g ai/ha)

Cc1ccc(-n2c(-c3cccc(C)c3)ncc(C(=O)C3=C(O)CCCC3=O)c2=O)cc1 [Compound 211]
35: Plant response rating, Flood, Barnyardgrass [3]
40: Plant response rating, Crabgrass, Large [5, 15] | Plant response rating, Pigweed [7, 16]
10: Plant response rating, Crabgrass, Large [5, 16] | Plant response rating, Barnyardgrass [9, 16] | Plant response rating, Morningglory [10, 17]
15: Plant response rating, Flood, Rice [1]
90: Plant response rating, Crabgrass, Large [5, 17] | Pigweed plant response rating ([7]; Postemergence, 500 g ai/ha)
85: Plant response rating, Flood, Ducksalad [4] | Plant response rating, Ducksalad [4, 14]
50: Ducksalad plant response rating [4] | Plant response rating, Barnyardgrass [9, 15] | Plant response rating, Foxtail, Giant [11, 15] | Plant response rating, Foxtail, Giant [11, 17]
100: Barnyardgrass plant response rating ([9]; Postemergence, 500 g ai/ha) | Morningglory plant response rating ([10]; Postemergence, 500 g ai/ha)
60: Plant response rating, Pigweed [7, 17] | Plant response rating, Velvetleaf [12, 15] | Plant response rating, Velvetleaf [12, 17]
20: Corn plant response rating ([8]; Postemergence, 500 g ai/ha) | Plant response rating, Foxtail, Giant [11, 16]
25: Plant response rating, Barnyardgrass [3, 14]
0: Plant response rating, Rice [1, 13] | Plant response rating, Rice [1, 14] | Rice plant response rating [1] | Plant response rating, Sedge, Umbrella [2, 13] | Sedge, Umbrella plant response rating [2] | Plant response rating, Barnyardgrass [3, 13] | Barnyardgrass plant response rating [3] | Plant response rating, Wheat [6, 15] | Wheat plant response rating ([6]; Postemergence, 500 g ai/ha) | Plant response rating, Wheat [6, 16] | Plant response rating, Wheat [6, 17] | Plant response rating, Corn [8, 15] | Plant response rating, Corn [8, 16] | Plant response rating, Corn [8, 17] | Plant response rating, Morningglory [10, 16]
30: Plant response rating, Velvetleaf [12, 16]
70: Plant response rating, Sedge, Umbrella [2, 14] | Plant response rating, Pigweed [7, 15] | Plant response rating, Barnyardgrass [9, 17] | Plant response rating, Morningglory [10, 15] | Velvetleaf plant response rating ([12]; Postemergence, 500 g ai/ha)
80: Plant response rating, Flood, Sedge, Umbrella [2] | Crabgrass, Large plant response rating ([5]; Postemergence, 500 g ai/ha) | Foxtail, Giant plant response rating ([11]; Postemergence, 500 g ai/ha)
